Laboratory results reported in patent US20150105252A1, “SUBSTITUTED PYRAZOLES AS HERBICIDES” (E I DU PONT DE NEMOURS AND COMPANY, priority 2013, published 2015).

How the values were obtained:
rice = assay: Test C flooded paddy test; assay type: in vivo, Oryza sativa; conditions: Flood
How it was run: (§1)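 Greenhouse pots flooded to 3 cm above soil at time of treatment received compound via the water, which stayed at that level.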

sedge, umbrella = assay: Test C flooded paddy test; assay type: in vivo, Cyperus difformis; conditions: Flood
How it was run: as §1

barnyardgrass [1] = assay: Test C flooded paddy test; assay type: in vivo, Echinochloa crus-galli; conditions: Flood
How it was run: as §1

morningglory = assay: Test A preemergence; assay type: in vivo, Ipomoea spp.
How it was run: (§2)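 Injury readout: eye-scored versus untreated controls, 0 to 100. Exposure period: ~10 days, greenhouse. Application: soil-directed spray over sown seed (pre) or spray on seedlings 2–10 cm tall with one or two leaves (post), compound carried in non-phytotoxic solvent including surfactant.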

pigweed = assay: Test A preemergence; assay type: in vivo, Amaranthus retroflexus
How it was run: as §2

barnyardgrass [2] = assay: Test C preemergence; assay type: in vivo, Echinochloa crus-galli
How it was run: (§3)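 Scores of 0 (no effect) to 100 (complete control) were assigned by eye after 13–15 days, comparing treated pots with controls. Soil-applied (preemergence) treatments went onto seeds in loam and sand; foliar (postemergence) treatments onto 1- to 4-leaf plants in peat medium.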

galium = assay: Test C postemergence; assay type: in vivo, Galium aparine; conditions: for Plant response rating (scale of 0 to 100 where 0 is no effect and 100 is complete control), Galium: 31 g ai/ha, visually evaluated after 13 to 15 days; for Galium plant response rating / Plant response rating, Galium: postemergence; for Galium plant response rating: 62 g ai/ha, scale 0 to 100
How it was run: as §3

foxtail, giant = assay: Test C preemergence; assay type: in vivo, Setaria faberii
How it was run: as §3

ducksalad = assay: Test C flooded paddy test; assay type: in vivo, Heteranthera limosa; conditions: Flood
How it was run: as §1

nutsedge, yellow = assay: Test C preemergence; assay type: in vivo, Cyperus esculentus
How it was run: as §3

[3] = 31 g ai/ha, scale 0 to 100 (0 no effect, 100 complete control)
[4] = 62 g ai/ha, scale 0 to 100 (0 no effect, 100 complete control)
[5] = preemergence, 125 g ai/ha, visual injury, 0 to 100 scale, approx. 10 days
[6] = preemergence, 500 g ai/ha, visual injury after approx. 10 days, 0 to 100 scale (0 no effect, 100 complete control)
[7] = preemergence, 31 g ai/ha, scale 0 to 100 (0 no effect, 100 complete control), 13 to 15 days
[8] = preemergence, 62 g ai/ha, scale 0 to 100 (0 no effect, 100 complete control), 13 to 15 days
[9] = preemergence, 125 g ai/ha, scale 0 to 100, 0 is no effect, 100 is complete control
[10] = 250 g ai/ha, scale 0 to 100 (0 no effect, 100 complete control)
[11] = 125 g ai/ha, scale 0 to 100, 0 no effect, 100 complete control
[12] = preemergence, 31 g ai/ha, visual rating, scale 0 to 100 (0 no effect, 100 complete control), 13 to 15 days
[13] = 125 g ai/ha, scale 0 to 100 (0 no effect, 100 complete control)
[14] = preemergence, 125 g ai/ha, visual injury approx. 10 days after treatment
[15] = preemergence, 125 g ai/ha, 13 to 15 days, scale 0 to 100, 0 = no effect, 100 = complete control
[16] = preemergence, 250 g ai/ha, scale 0 to 100, 0 is no effect, 100 is complete control
[17] = Preemergence, 500 g ai/ha, 0 to 100 scale, 0 no effect, 100 complete control
[18] = Preemergence, 16 g ai/ha, scale 0 to 100
[19] = preemergence, 62 g ai/ha, 13 to 15 days, scale 0 to 100, 0 = no effect, 100 = complete control

SMILES | Plant response rating, Rice (rice; [3]) | Plant response rating, Rice (rice; [4]) | Plant response rating, Rice (rice; 125 g ai/ha, scale 0 to 100) | Plant response rating, Rice (rice; 250 g ai/ha, scale 0 to 100) | Plant response rating, Sedge, Umbrella (sedge, umbrella; [3]) | Plant response rating, Sedge, Umbrella (sedge, umbrella; [4]) | Plant response rating, Sedge, Umbrella (sedge, umbrella; 125 g ai/ha, scale 0 to 100) | Plant response rating, Sedge, Umbrella (sedge, umbrella; 250 g ai/ha, scale 0 to 100) | Plant response rating, Barnyardgrass (barnyardgrass [1]; [3]) | Plant response rating, Barnyardgrass (barnyardgrass [1]; [4]) | Plant response rating, Barnyardgrass (barnyardgrass [1]; 125 g ai/ha, scale 0 to 100) | Plant response rating, Barnyardgrass (barnyardgrass [1]; 250 g ai/ha, scale 0 to 100) | Morningglory plant response rating (morningglory; [5]) | Morningglory plant response rating (morningglory; [6]) | Plant response rating (scale of 0 to 100 where 0 is no effect and 100 is complete control), Galium (galium; Postemergence) | Galium plant response rating (galium) | Plant response rating, Galium (galium; [11]) | Plant response rating, Ducksalad (ducksalad; [3]) | Plant response rating, Ducksalad (ducksalad; [4]) | Plant response rating, Ducksalad (ducksalad; 250 g ai/ha, scale 0 to 100) | also measured
CCCNC(=O)c1cc(CC)n(Cc2nc(C(F)(F)F)nn2C)n1 [Compound 109] | 0 | 0 | 20 | 35 | 30 | 60 | 75 | 85 | 0 | 0 | 35 | 40 | 100 | 100 | 50 | 50 | 65 | 30 | 40 | 85 | Pigweed plant response rating (pigweed; [5]): 100; Pigweed plant response rating (pigweed; [6]): 100; Plant response rating (scale of 0 to 100), Barnyardgrass (barnyardgrass [2]; Preemergence, 250 g ai/ha): 100; Barnyardgrass plant response rating (barnyardgrass [2]; [7]): 100; Barnyardgrass plant response rating (barnyardgrass [2]; [8]): 100; Barnyardgrass plant response rating (barnyardgrass [2]; [9]): 100; Plant response rating, Galium (galium; [10]): 80; Plant response rating (scale of 0 to 100), Foxtail, Giant (foxtail, giant; Preemergence, 250 g ai/ha): 100; Foxtail, Giant plant response rating (foxtail, giant; [12]): 100; Foxtail, Giant plant response rating (foxtail, giant; [8]): 100; Foxtail, Giant plant response rating (foxtail, giant; [9]): 100; Plant response rating, Ducksalad (ducksalad; 125 g ai/ha, scale 0 to 100): 75; Plant response rating (scale of 0 to 100), Nutsedge, Yellow (nutsedge, yellow; Preemergence, 250 g ai/ha): 60; Nutsedge, Yellow plant response rating (nutsedge, yellow; [12]): 5; Nutsedge, Yellow plant response rating (nutsedge, yellow; [8]): 25; Nutsedge, Yellow plant response rating (nutsedge, yellow; [9]): 40
CCCNC(=O)c1cc(CCF)n(Cc2ccnc(C(F)(F)F)c2)n1 [Compound 177] | 0 | 0 |  | 0 | 50 | 75 |  | 90 | 0 | 0 |  | 0 |  | 100 | 50 | 50 | 80 | 0 | 50 | 85 | Plant response rating, Rice (rice; [13]): 0; Plant response rating, Sedge, Umbrella (sedge, umbrella; [13]): 85; Plant response rating, Barnyardgrass (barnyardgrass [1]; [13]): 0; Morningglory plant response rating (0 to 100 scale) (morningglory; [14]): 100; Pigweed plant response rating (0 to 100 scale) (pigweed; [14]): 100; Pigweed plant response rating (pigweed; [6]): 100; Barnyardgrass plant response rating (barnyardgrass [2]; [12]): 65; Barnyardgrass plant response rating (barnyardgrass [2]; [8]): 100; Plant response rating, Barnyardgrass (barnyardgrass [2]; [15]): 100; Barnyardgrass plant response rating (barnyardgrass [2]; [16]): 100; Plant response rating, Galium (galium; [10]): 90; Foxtail, Giant plant response rating (foxtail, giant; [12]): 85; Foxtail, Giant plant response rating (foxtail, giant; [8]): 98; Plant response rating, Foxtail, Giant (foxtail, giant; [15]): 100; Foxtail, Giant plant response rating (foxtail, giant; [16]): 100; Plant response rating, Ducksalad (ducksalad; [13]): 75; Nutsedge, Yellow plant response rating (nutsedge, yellow; [12]): 5; Nutsedge, Yellow plant response rating (nutsedge, yellow; [8]): 60; Plant response rating, Nutsedge, Yellow (nutsedge, yellow; [15]): 80; Nutsedge, Yellow plant response rating (nutsedge, yellow; [16]): 95
CCONC(=O)c1cc(CC)n(Cc2ccnc(C(F)(F)F)c2)n1 [Compound 77] | 0 | 0 | 0 | 0 | 0 | 50 | 60 | 75 | 0 | 0 | 20 | 20 | 20 |  | 5 | 15 | 20 | 20 | 40 | 75 | Morningglory plant response rating (morningglory; [17]): 50; Pigweed plant response rating (pigweed; [17]): 100; Pigweed plant response rating (pigweed; [5]): 100; Plant response rating, Barnyardgrass (barnyardgrass [2]; [18]): 10; Barnyardgrass plant response rating (barnyardgrass [2]; [7]): 20; Plant response rating, Barnyardgrass (barnyardgrass [2]; [19]): 75; Barnyardgrass plant response rating (barnyardgrass [2]; [9]): 100; Plant response rating (scale of 0 to 100), Galium (galium; Postemergence, 16 g ai/ha): 5; Plant response rating, Foxtail, Giant (foxtail, giant; [18]): 20; Foxtail, Giant plant response rating (foxtail, giant; [7]): 80; Plant response rating, Foxtail, Giant (foxtail, giant; [19]): 85; Foxtail, Giant plant response rating (foxtail, giant; [9]): 100; Plant response rating, Ducksalad (ducksalad; 125 g ai/ha, scale 0 to 100): 70; Plant response rating, Nutsedge, Yellow (nutsedge, yellow; [18]): 10; Nutsedge, Yellow plant response rating (nutsedge, yellow; [7]): 10; Plant response rating, Nutsedge, Yellow (nutsedge, yellow; [19]): 25; Nutsedge, Yellow plant response rating (nutsedge, yellow; [9]): 60
